Reference: publication PMC4016748, “Using ^15N-Ammonium to Characterise and Map Potassium Binding Sites in Proteins by NMR Spectroscopy” (Chembiochem, 2014)

Legend:
[1] = target: T1, DnaK-ABD (Thermus thermophilus, UniProt Q56235); settings: 150 mM 15NH4Cl, 5 mM MgCl2, 0.5 mM ADP, 50 mM phosphate, 1 mM DTT, pH 7.5; two sites; 15N-labelled compound
[2] = target: HDAC8 (Homo sapiens, UniProt Q9BY41); assay: biochemical
[3] = target: T1, DnaK-ABD; assay: 1H, […] HSQC NMR of bound […]NH4+ (indirect); assay type: binding; settings: 0.5 mM ADP added together with 50 mM phosphate; 150 mM 15NH4Cl, 5 mM MgCl2, 1 mM DTT, pH 7.5

T1 sequence (Q56235 1-381): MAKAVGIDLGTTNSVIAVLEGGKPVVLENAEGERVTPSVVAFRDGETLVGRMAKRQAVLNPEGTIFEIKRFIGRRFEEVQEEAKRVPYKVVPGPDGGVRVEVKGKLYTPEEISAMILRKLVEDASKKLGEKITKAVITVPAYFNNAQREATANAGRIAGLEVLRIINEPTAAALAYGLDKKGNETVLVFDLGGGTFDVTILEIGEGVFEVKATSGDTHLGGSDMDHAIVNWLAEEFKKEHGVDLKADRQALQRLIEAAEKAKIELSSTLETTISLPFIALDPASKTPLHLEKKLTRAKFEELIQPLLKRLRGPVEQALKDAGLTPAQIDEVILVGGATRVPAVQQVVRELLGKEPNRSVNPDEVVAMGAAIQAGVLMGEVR
Sequence of HDAC8 (Q9BY41 whole entry): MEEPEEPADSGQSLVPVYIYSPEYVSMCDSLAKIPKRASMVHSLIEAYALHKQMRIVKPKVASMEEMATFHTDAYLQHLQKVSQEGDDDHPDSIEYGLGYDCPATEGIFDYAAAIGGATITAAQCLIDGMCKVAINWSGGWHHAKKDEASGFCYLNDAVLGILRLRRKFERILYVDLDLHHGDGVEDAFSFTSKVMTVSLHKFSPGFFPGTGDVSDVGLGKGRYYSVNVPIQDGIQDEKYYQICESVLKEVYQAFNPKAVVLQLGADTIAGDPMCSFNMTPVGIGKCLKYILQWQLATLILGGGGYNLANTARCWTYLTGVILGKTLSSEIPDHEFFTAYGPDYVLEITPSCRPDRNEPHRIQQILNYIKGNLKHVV

SMILES | 1H,15N HSQC NMR and 15N-edited NOESY [1] | Kd [2] [mM] | 1H,15N HSQC NMR of bound 15NH4+ (indirect) [3]
N [15NH4+] | addition of ADP and Pi resulted in the appearance of two clear peaks | 13 ± 8 | 
Nc1ncnc2c1ncn2[C@@H]1O[C@H](COP(=O)(O)OP(=O)(O)O)[C@@H](O)[C@H]1O [ADP] |  |  | binding of ADP and Pi protects the ammonium protons from solvent exchange
